In brackets after ≈: the same amount, converted by molar mass.

The assay relates to KB. Description: Cytotoxicity against human KB cells. The format is functional. The conditions noted are these: read-out: ED50 (the source's name).
As to `COc1ccc(-c2cc(=O)c3c(O)c(OC)c(OC)cc3o2)cc1O` [EUPATORIN], the EC50 was over 50 µg/mL. To `COc1cc([C@@H]2c3cc4c(cc3C[C@H]3COC(=O)[C@@H]32)OCO4)cc(OC)c1OC` [DESOXYPODOPHYLLOTOXIN] belongs 0.032 µg/mL (≈ 0.0803 µM); to `COc1ccc(-c2cc(=O)c3c(O)c(OC)c(OC)cc3o2)cc1OC`, over 100 µg/mL; to `COc1ccc(-c2oc3c(OC)c(OC)c(OC)c(O)c3c(=O)c2OC)cc1` [5-HYDROXYAURANETIN], 1.8 µg/mL (≈ 4.63 µM).

Regarding `c1cc2c(cc1[C@H]1OC[C@H]3[C@@H]1CO[C@@H]3c1ccc3c(c1)OCO3)OCO2` [SESAMIN], the EC50 was over 100 µg/mL. Consider `COc1ccc(-c2cc(=O)c3c(O)c(OC)c(OC)c(OC)c3o2)cc1` [GARDENIN B], for which the EC50 amounted to 6 µg/mL (≈ 16.7 µM).

(Values after ChEMBL document CHEMBL1158655, “Plant anticancer agents. IX. Constituents of Hyptis tomentosa” (1979).)
